Data published in EP0041615A1, “Use of imidazolyl-vinyl ketones and alcohols as antimicrobial agents” (BAYER AG, priority 1980, dated 1981).

Legend:
Candida-Zellen = assay: Antimycotic in-vivo activity (oral) in mouse candidosis; set-up: species or system Mäuse vom Typ SPF-CF1; details: 50-100 mg/kg each 1 h before and 7 h after i.v. infection, untreated controls about 5 % survival on day 6 p.i.
Procedure: Antimykotische in-vivo-Wirksamkeit (oral) bei Mäuse-Candidose
Mäuse vom Typ SPF-CF1 wurden intravenös mit 1-2 x 10^6 logarithmisch wachsenden Candida-Zellen, die in physiologischer Kochsalzlösung suspendiert waren, infiziert. Eine Stunde vor und sieben Stunden nach der Infektion werden die Tiere mit jeweils 50-100 mg/kg Körpergewicht der Präparate oral behandelt.
Unbehandelte Tiere starben 3 bis 6 Tage post infektionem. Die Ueberlebensrate am 6.Tag post infektionem betrug bei unbehandelten Kontrolltieren etwa 5 %.

[1] = test system: Dermatophyten und Schimmelpilze; Hefen; assay: Antimycotic in-vitro activity, serial dilution test; assay type: cell-based; details: inoculum 5 x 10^4 germs/ml, 28°C, 24 h (yeasts) or 96 h (dermatophytes, moulds), stated relative to prior-art compound (A)
Procedure: Antimykotische in-vitro-Wirksamkeit
Die in-vitro-Wirksamkeit im Reihenverdünnungstest wird mit Keiminokula von durchschnittlich 5 x 10^4 Keimen /ml Substant durchgeführt. Als Nährmedium dienten: • a) für Dermatophyten und Schimmelpilze: Sabouraud's milieu d'epreuve • b) für Hefen: Isotonic Sensitest-Broth von Oxid.
Die Bebrütungstemperatur berug 28°C; Bebrütungsdauer war 24 Stunden bei Hefen und 96 Stunden bei Dermatophyten und Schimmelpilzen.

[2] = test system: Trichophyton mentagrophytes; assay: Antimicrobial in-vivo activity (local), experimental guinea pig trichophytosis model; set-up: species or system Meerschweinchen der Rasse Pirbright-white; details: once daily from day 3 p.i., 1 % solution in dimethyl sulfoxide:glycerol 1:4, result means only slight reddening and isolated scales
Excerpt: Antimikrobielle in-vivo-Wirksamkeit (lokal) am Modell der experimetellen Meerschweinchen-Trichophytie
Weiße Meerschweinchen der Rasse Pirbright-white wurden auf dem geschorenen, nicht skarifizierten Rücken mit einer Mikro- und Makrokonidien-Suspension von Trichophyton mentagrophytes infiziert. Die infizierten Tiere wurden, beginnend am 3.Tag p.i., lx täglich mit 1%-iger Lösung der erfindungsgemäßen Präparate (in Dimethylsulfoxid:Glycerin=1:4) lokal behandelt.
Bei unbehandelten Tieren entwickelt sich innerhalb von 12 Tagen p.i. das typische Bild einer Dermatophytose mit Rötung, Schuppung und Haarausfall bis zum totalen Integument-Defekt an der Infektionsstelle.

Compound | Wirkung (Mäuse-Candidose) (Candida-Zellen) | antimykotische Wirkung [1] | Wirkung (Meerschweinchen-Trichophytie) [2]
CC(C)(C)C(O)C(=Cc1ccc(Cl)cc1)n1ccnc1 (stereo not shown) [(B), reference compound] | keine Wirkung |  | 
CCCCCCCC=C(C(=O)C(C)(C)C)n1ccnc1 [Beispiel 1] |  | bessere antimykotische Wirkung | Wirkung bis gute Wirkung
CCCCCCCC=C(C(O)C(C)(C)C)n1ccnc1 (stereo not shown) [Beispiel 2] |  | bessere antimykotische Wirkung | Wirkung bis gute Wirkung
CC(C)C=C(C(=O)C(C)(C)C)n1ccnc1 [Beispiel 5] | gute bis sehr gute Wirkung | bessere antimykotische Wirkung | 
CC(C)(C)C=C(C(=O)C(C)(C)C)n1ccnc1 [Beispiel 7] | gute bis sehr gute Wirkung | bessere antimykotische Wirkung | 
CCC(C)C=C(C(=O)C(C)(C)C)n1ccnc1 (stereo not shown) [Beispiel 8] | gute bis sehr gute Wirkung | bessere antimykotische Wirkung | Wirkung bis gute Wirkung
CC(C)(C)C(=O)C(=CC1CCCC1)n1ccnc1 [Beispiel 10] |  | bessere antimykotische Wirkung | 
CC=C(C(O)C(C)(C)C)n1ccnc1 (stereo not shown) [Beispiel 25] | gute bis sehr gute Wirkung |  | 
CCC(C)C=C(C(O)C(C)(C)C)n1ccnc1 (stereo not shown) [Beispiel 27] |  |  | Wirkung bis gute Wirkung
CC(C)(C)C(O)C(=CC1CCCC1)n1ccnc1 (stereo not shown) [Beispiel 28] |  | bessere antimykotische Wirkung | 
CC(C)(C)C(O)C(=CC1c2ccccc2-c2ccccc21)n1ccnc1 (stereo not shown) [Beispiel 32] |  | bessere antimykotische Wirkung | 
CC(C)(C)C(O)C(=CC1CCCCC1)n1ccnc1 (stereo not shown) [Beispiel 37] |  | bessere antimykotische Wirkung | 
CC(C)(C)C(=O)C(=Cc1ccccc1Cl)n1ccnc1 [Verbindung (A), reference compound] | keine Wirkung |  | 
